Results: US20240041042A1, “1-(PYRIDYL)-5-AZINYLPYRAZOLE DERIVATIVES, AND THEIR USE FOR CONTROL OF UNDESIRED PLANT GROWTH” (Bayer Aktiengesellschaft, priority 2020, published 2024)

Key:
Type in all cases: in vivo
[1] = system: Amaranthus retroflexus (AMARE); assay: Pre-emergence herbicidal action against AMARE; settings: visual scoring after about 3 weeks vs untreated controls
In short: (§1)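 Read-out is visual percent damage relative to untreated pots, with 100% meaning dead plants and 0% meaning no difference, assessed roughly three weeks after treatment. Compounds were applied pre-emergence to the covering soil at up to 320 g/ha.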

[2] = system: Echinochloa crus-galli (ECHCG); assay: Post-emergence herbicidal action against ECHCG
In short: (§2)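 Post-emergence greenhouse spray, one-leaf stage, 600 l/ha water plus 0.5% additive; WP or EC formulations; application rates 320 g/ha or lower. Visual % damage vs untreated controls at ~3 weeks.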

[3] = system: Lolium rigidum (LOLRI); assay: Post-emergence herbicidal action against LOLRI
In short: as §2

[4] = system: Verconica persica (VERPE); assay: Pre-emergence herbicidal action against VERPE
In short: as §1

[5] = system: Avena fatua (AVEFA); assay: Pre-emergence herbicidal action against AVEFA; settings: visual scoring after about 3 weeks vs untreated controls
In short: as §1

[6] = system: Matricaria inodora (MATIN); assay: Post-emergence herbicidal action against MATIN
In short: as §2

[7] = system: Alopecurus myosuroides (ALOMY); assay: Post-emergence herbicidal action against ALOMY; settings: visual rating about 3 weeks after treatment vs untreated controls (100% = plants have died, 0% = like control plants)
In short: as §2

[8] = system: Abutilon theophrasti (ABUTH); assay: Pre-emergence herbicidal action against ABUTH; settings: 100% = plants have died
In short: as §1

[9] = system: Alopecurus myosuroides (ALOMY); assay: Pre-emergence herbicidal action against ALOMY; settings: scored visually after about 3 weeks, 100% = plants have died
In short: as §1

[10] = system: Amaranthus retroflexus (AMARE); assay: Post-emergence herbicidal action against AMARE
In short: as §2

[11] = 80 g/ha, scored visually after about 3 weeks vs untreated controls, 0% = like control plants
[12] = Dosage column 320 g/ha (title prints 3200 g/ha), scored visually after about 3 weeks
[13] = 80 g/ha, visual rating about 3 weeks after treatment vs untreated controls (100% = plants have died, 0% = like control plants)
[14] = 320 g/ha, visual rating about 3 weeks after treatment

Structure (SMILES)	Pre-emergence action against AMARE in % ([1]; 80 g/ha) [%]	Pre-emergence action against AMARE in % ([1]; 320 g/ha) [%]	Post-emergence action against ECHCG in % ([2]; dosage 80 g/ha) [%]	Post-emergence action against ECHCG in % ([2]; dosage 320 g/ha) [%]	Post-emergence action against LOLRI in % ([3]; dosage 80 g/ha) [%]	Post-emergence action against LOLRI in % ([3]; dosage 320 g/ha) [%]	Pre-emergence action against VERPE in % ([4]; dosage 80 g/ha) [%]	Pre-emergence action against VERPE in % ([4]; dosage 320 g/ha) [%]	Pre-emergence action against AVEFA in % ([5]; 80 g/ha) [%]	Pre-emergence action against AVEFA in % ([5]; 320 g/ha) [%]	Post-emergence action against MATIN in % ([6]; dosage 80 g/ha) [%]	Post-emergence action against MATIN in % ([6]; dosage 320 g/ha) [%]	Post-emergence action against ALOMY in % ([7]; 80 g/ha) [%]	Post-emergence action against ALOMY in % ([7]; 320 g/ha) [%]	Pre-emergence action against ABUTH [8, 11] [%]	Pre-emergence action against ABUTH [8, 12] [%]	Pre-emergence action against ALOMY ([9]; 80 g/ha) [%]	Pre-emergence action against ALOMY ([9]; 320 g/ha) [%]	Post-emergence action against AMARE in % [10, 13] [%]	Post-emergence action against AMARE in % [10, 14] [%]
COC(=O)[C@@H](C)Oc1nn(-c2ccccn2)c(-c2cncc(F)c2)c1Cl [Example I-189]	100	100	90	90	100	100	90	100	90	90	90	90	80	90	80	90	80	90	–	–
CCOC(=O)COc1nn(-c2ncccc2F)c(-c2cncc(F)c2)c1C1CC1 [Example I-174]	100	100	80	80	80	80	100	100	–	90	–	–	90	90	–	90	90	100	80	80
CCOC(=O)COc1nn(-c2nc(F)ccc2F)c(-c2cncc(F)c2)c1C1CC1 [Example I-149]	90	100	80	80	80	90	–	100	80	90	80	90	80	90	–	80	90	100	–	–
O=C(O)COc1nn(-c2ncccc2F)c(-c2cncc(F)c2)c1C1CC1 [Example I-175]	100	100	80	80	80	80	100	100	–	90	–	–	90	90	80	90	100	100	80	80
COC(=O)C(C)COC(=O)C(C)Oc1nn(-c2ccccn2)c(-c2ccc(F)nc2)c1Cl (centres unmarked) [Example I-291]	80	100	80	80	80	80	–	80	80	90	–	–	80	80	–	–	100	100	80	80
O=C(O)COc1nn(-c2ncccc2F)c(-c2ccc(F)nc2)c1Br [Example I-17]	100	100	80	80	–	80	–	100	80	100	–	–	90	90	–	90	100	100	–	–
COC(=O)COc1nn(-c2ncccc2F)c(-c2cncc(F)c2)c1Br [Example I-16]	100	100	80	80	–	–	–	90	–	90	–	80	90	90	–	–	100	100	–	80
